From US10316017B2, “COT modulators and methods of use thereof” (Gilead Sciences, Inc., priority 2015, dated 2019)
Where two headings read alike, the source gives them in different places.

Columns and labels:
[1] = tested on: TNFα production in LPS-stimulated human monocytes; assay: Cot Monocyte TNFα Cell Based Assay; conditions: TNFα in LPS-stimulated human monocytes, read-out: EC50 TNF
Procedure, shortened: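 Cells at 5,000/well were pretreated with compound for 1 h at 37 °C (0.5% DMSO final), then stimulated with 50 pg/ml LPS for 4 h at 37 °C. Supernatant TNFα was measured by two-antibody TR-FRET after overnight room-temperature incubation; values are percent of control between unstimulated and stimulated wells.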

[2] = target: T1, human Cot catalytic domain (30-397 amino acids) (Homo sapiens, UniProt P41279); assay: High Throughput Cot Biochemical Assay (KinEASE TR-FRET); conditions: Cot KinEASE TR-FRET (HTRF) biochemical assay, 400 μM ATP; read-out: IC50 HTRF
T1 construct: Purified recombinant human Cot catalytic domain (30-397 amino acids) was purchased from Cama Biosciences; purchased Cama Biosciences (so in the source)
T1 sequence (P41279 30-397): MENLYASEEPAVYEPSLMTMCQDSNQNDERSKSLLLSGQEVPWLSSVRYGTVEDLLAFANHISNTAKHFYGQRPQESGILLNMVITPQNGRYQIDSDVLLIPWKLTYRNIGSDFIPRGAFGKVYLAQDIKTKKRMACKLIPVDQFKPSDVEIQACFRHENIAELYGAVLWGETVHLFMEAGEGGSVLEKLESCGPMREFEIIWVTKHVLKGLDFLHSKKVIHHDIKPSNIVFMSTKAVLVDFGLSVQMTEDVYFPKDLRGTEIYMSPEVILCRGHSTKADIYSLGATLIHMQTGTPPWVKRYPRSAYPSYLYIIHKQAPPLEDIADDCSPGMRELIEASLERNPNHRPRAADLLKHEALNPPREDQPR
Procedure, shortened: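 Reaction of 5 nM recombinant human Cot catalytic domain (aa 30-397) with 1 μM STK3 peptide (XL665-labeled) and 400 μM ATP in 10 mM MOPS pH 7.0, 10 mM MgOAc, 1 mM DTT, 0.5 mg/mL BSA, 0.1% DMSO. Phosphopeptide detected by TR-FRET with europium anti-phospho antibody.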

Structure (SMILES) | EC50 ([1]; Homo sapiens, Monocyte) | IC50 [2] | EC50 [1]
CC(C)(C)CNc1c(C#N)cnc2c(C#N)cc(N[C@@H](c3cccc(NS(C)(=O)=O)c3)c3cn(C4CC4)nn3)cc12 [Example 68, (S)-N-(3-((1-cyclopropyl-1H-1,2,3-triazol-4-yl)((3,8-dicyano-4-(neopentylamino)quinolin-6-yl)amino)methyl)phenyl)methanesulfonamide] | > 1000 nM | 3 nM | –
CN(c1cccc([C@H](Nc2cc(C#N)c3ncc(C#N)c(NCC(C)(C)C)c3c2)c2cn(C3CC3)nn2)c1)S(C)(=O)=O [Example 69, (S)-N-(3-((1-cyclopropyl-1H-1,2,3-triazol-4-yl)((3,8-dicyano-4-(neopentylamino)quinolin-6-yl)amino)methyl)phenyl)-N-methylmethanesulfonamide] | 124 nM | 3 nM | –
CC(C)(C)CNc1c(C#N)cnc2c(Cl)cc(N[C@H](c3cn(C4(C(N)=O)CC4)nn3)c3ccccc3Cl)cc12 [Example 70, (S)-1-(4-(((8-chloro-3-cyano-4-(neopentylamino)quinolin-6-yl)amino) (2-chlorophenyl)methyl)-1H-1,2,3-triazol-1-yl) cyclopropane-1-carboxamide] | 124 nM | 9 nM | –
N#CCC[C@@H](Nc1c(C#N)cnc2c(Cl)cc(N[C@H](c3cn(CC(N)=O)nn3)c3ccccc3Cl)cc12)c1ccccc1 [Example 71, 2-(4-((S)-((8-chloro-3-cyano-4-(((R)-3-cyano-1-phenylpropyl)amino)quinolin-6-yl)amino) (2-chlorophenyl)methyl)-1H-1,2,3-triazol-1-yl) acetamide] | 657 nM | 4 nM | –
CC1(n2cc([C@@H](Nc3cc(Cl)c4ncc(C#N)c(N[C@H](CCC#N)c5ccccc5)c4c3)c3ccccc3Cl)nn2)CC1 [Example 72, 8-chloro-6-(((S)-(2-chlorophenyl)(1-(1-methylcyclopropyl)-1H-1,2,3-triazol-4-yl)methyl)amino)-4-(((R)-3-cyano-1-phenylpropyl)amino)quinoline-3-carbonitrile] | 66 nM | 2 nM | –
N#CCC[C@@H](Nc1c(C#N)cnc2c(Cl)cc(N[C@H](c3cn(C4(C#N)CC4)nn3)c3ccccc3Cl)cc12)c1ccccc1 [Example 73, 8-chloro-6-(((S)-(2-chlorophenyl)(1-(1-cyanocyclopropyl)-1H-1,2,3-triazol-4-yl)methyl)amino)-4-(((R)-3-cyano-1-phenylpropyl)amino) quinoline-3-carbonitrile] | 34 nM | 2 nM | –
[2H][C@](Nc1cc(Cl)c2ncc(C#N)c(N[C@H](CCC#N)c3ccccc3)c2c1)(c1ccc(Cl)cc1)c1cn(C2CC2)nn1 [Example 74, 8-chloro-6-(((S)-(4-chlorophenyl)(1-cyclopropyl-1H-1,2,3-triazol-4-yl)methyl-d)amino)-4-(((R)-3-cyano-1-phenylpropyl)amino) quinoline-3-carbonitrile] | 30 nM | 3 nM | –
[2H][C@](Nc1cc(-c2ccnnc2)c2ncc(C#N)c(NCC(C)(C)C)c2c1)(c1ccc(F)cc1)c1cn(C2CC2)nn1 [Example 75, (S)-6-(((1-cyclopropyl-1H-1,2,3-triazol-4-yl)(4-fluorophenyl)methyl-d)amino)-4-(neopentylamino)-8-(pyridazin-4-yl)quinoline-3-carbonitrile] | > 1000 nM | 199 nM | –
CC(=O)Nc1cccc([C@H](Nc2cc(C#N)c3ncc(C#N)c(NCC(C)(C)C)c3c2)c2cn(C3CC3)nn2)c1 [Example 76, (S)-N-(3-((1-cyclopropyl-1H-1,2,3-triazol-4-yl)((3,8-dicyano-4-(neopentylamino)quinolin-6-yl)amino)methyl)phenyl)acetamide] | 462 nM | 2 nM | –
CC(C)(C)CNc1c(C#N)cnc2c(C#N)cc(N[C@@H](c3ccc(Cl)cc3)c3cn(C4CC4)nn3)cc12 [Example 77, (S)-6-(((4-chlorophenyl) (1-cyclopropyl-1H-1,2,3-triazol-4-yl)methyl)amino)-4-(neopentylamino) quinoline-3,8-dicarbonitrile] | 108 nM | 9 nM | –
CC(=O)N(C)c1cccc([C@H](Nc2cc(Br)c3ncc(C#N)c(NCC(C)(C)C)c3c2)c2cn(C3CC3)nn2)c1 [Example 78, (S)-N-(3-(((8-bromo-3-cyano-4-(neopentylamino)quinolin-6-yl)amino) (1-cyclopropyl-1H-1,2,3-triazol-4-yl)methyl)phenyl)-N-methylacetamide] | 436 nM | 5 nM | –
CC(=O)Nc1cccc([C@H](Nc2cc(Br)c3ncc(C#N)c(NCC(C)(C)C)c3c2)c2cn(C3CC3)nn2)c1 [Example 79, (S)-N-(3-(((8-bromo-3-cyano-4-(neopentylamino)quinolin-6-yl)amino) (1-cyclopropyl-1H-1,2,3-triazol-4-yl)methyl)phenyl)acetamide] | 278 nM | 8 nM | –
[2H][C@](Nc1cc(Br)c2ncc(C#N)c(NCC(C)(C)C)c2c1)(c1ccc(Cl)cc1)c1cn(C2CC2)nn1 [Example 80, (S)-8-bromo-6-(((4-chlorophenyl)(1-cyclopropyl-1H-1,2,3-triazol-4-yl)methyl-d)amino)-4-(neopentylamino) quinoline-3-carbonitrile] | 395 nM | 31 nM | –
[2H][C@](Nc1cc(-c2cncnc2)c2ncc(C#N)c(N[C@H](CC)c3ccccc3)c2c1)(c1ccc(F)cc1)c1cn(C2CC2)nn1 [Example 81, 6-(((S)-(1-cyclopropyl-1H-1,2,3-triazol-4-yl)(4-fluorophenyl)methyl-d)amino)-4-(((R)-1-phenylpropyl)amino)-8-(pyrimidin-5-yl)quinoline-3-carboitrile] | 316 nM | 20 nM | –
CC(C)(C)CNc1c(C#N)cnc2c(C#N)cc(N[C@@H](c3cccc(-c4ncco4)c3)c3cn(C4CC4)nn3)cc12 [Example 82, (S)-6-(((1-cyclopropyl-1H-1,2,3-triazol-4-yl)(3-(oxazol-2-yl)phenyl)methyl)amino)-4-(neopentylamino) quinoline-3,8-dicarbonitrile] | 183 nM | 1 nM | –
CC(C)(C)CNc1c(C#N)cnc2c(Br)cc(N[C@@H](c3cccc(-c4ncco4)c3)c3cn(C4CC4)nn3)cc12 [Example 83, (S)-8-bromo-6-(((1-cyclopropyl-1H-1,2,3-triazol-4-yl) (3-(oxazol-2-yl)phenyl)methyl)amino)-4-(neopentylamino) quinoline-3-carbonitrile] | 165 nM | 2 nM | –
[2H][C@](Nc1cc(C#N)c2ncc(C#N)c(NCC(C)(C)C)c2c1)(c1ccccc1)c1cn(C2CC2)nn1 [Example 84, (S)-6-(((1-cyclopropyl-1H-1,2,3-triazol-4-yl) (phenyl)methyl-d)amino)-4-(neopentylamino) quinoline-3,8-dicarbonitrile] | 47 nM | 2 nM | –
[2H][C@@](Nc1cc(C(C)=O)c2ncc(C#N)c(Nc3cccc(Cl)c3)c2c1)(c1cn(C2CC2)nn1)c1ccccc1Cl [Example 85, (S)-8-acetyl-6-(((2-chlorophenyl)(1-cyclopropyl-1H-1,2,3-triazol-4-yl)methyl-d)amino)-4-((3-chlorophenyl)amino)quinoline-3-carbonitrile] | 862 nM | 42 nM | –
[2H][C@@](Nc1cc(Cl)c2ncc(C#N)c(NCC(C)(C)C)c2c1)(c1cn(C23CC(C2)C3)nn1)c1ccccc1Cl [Example 86, (S)-6-(((1-(bicyclo[1.1.1]pentan-1-yl)-1H-1,2,3-triazol-4-yl)(2-chlorophenyl)methyl-d)amino)-8-chloro-4-(neopentylamino) quinoline-3-carbonitrile] | 244 nM | 22 nM | –
[2H]C(Nc1cc(Cl)c2ncc(C#N)c(NC(CCC#N)c3ccccc3)c2c1)(c1cn(C2CC2)nn1)c1ccccc1Cl (stereo not drawn) [Example 87, 8-chloro-6-(((2-chlorophenyl) (1-cyclopropyl-1H-1,2,3-triazol-4-yl)methyl-d)amino)-4-((3-cyano-1-phenylpropyl)amino) quinoline-3-carbonitrile] | > 1000 nM | > 10000 nM | –
[2H]C(Nc1cc(Cl)c2ncc(C#N)c(NC(CCC#N)c3ccccc3)c2c1)(c1cn(C2CC2)nn1)c1ccccc1Cl (stereo not drawn) [Example 88, 8-chloro-6-(((2-chlorophenyl) (1-cyclopropyl-1H-1,2,3-triazol-4-yl)methyl-d)amino)-4-((3-cyano-1-phenylpropyl)amino) quinoline-3-carbonitrile] | – | 190 nM | > 1000 nM
[2H][C@](Nc1cc(Cl)c2ncc(C#N)c(N[C@H](CCC#N)c3ccccc3)c2c1)(c1cn(C2CC2)nn1)c1ccccc1Cl [Example 89, 8-chloro-6-(((2-chlorophenyl) (1-cyclopropyl-1H-1,2,3-triazol-4-yl)methyl-d)amino)-4-(((R)-3-cyano-1-phenylpropyl)amino) quinoline-3-carbonitrile] | 38 nM | 2 nM | –
[2H][C@](Nc1cc(Cl)c2ncc(C#N)c(NCC(C)(C)C)c2c1)(c1cn(CC2CCO2)nn1)c1ccccc1Cl (stereo partly drawn) [Example 90, 8-chloro-6-(((2-chlorophenyl) (1-(oxetan-2-ylmethyl)-1H-1,2,3-triazol-4-yl)methyl-d)amino)-4-(neopentylamino) quinoline-3-carbonitrile] | 287 nM | 26 nM | –
[2H][C@](Nc1cc(Cl)c2ncc(C#N)c(NCC(C)(C)C)c2c1)(c1cn(CC(F)(F)F)nn1)c1ccccc1Cl [Example 93, 8-chloro-6-(((2-chlorophenyl) (1-(2,2,2-trifluoroethyl)-1H-1,2,3-triazol-4-yl)methyl-d)amino)-4-(neopentylamino) quinoline-3-carbonitrile] | 832 nM | 59 nM | –
